Data taken from ChEMBL document CHEMBL1201862, “PubChem BioAssay data set” (2004).
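96-well plates; 48 h exposure; 5 concentrations. Endpoints by linear interpolation between flanking doses. Not reached: highest tested concentration assigned. GI50 is the concentration that inhibits growth by half.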 Calls of active or inactive are those of the source. Cut-off read from the data, not from the text of the source: active = GI50 up to about 1.1 µM and inactive = higher.

Columns and labels:
Assay in all cases: growth of human tumour cells (NCI), 48 h
[1] = tested on: SK-OV-3
[2] = tested on: LOX IMVI
[3] = tested on: CCRF-CEM
[4] = tested on: MOLT-4
[5] = tested on: SF-268
[6] = tested on: OVCAR-8
[7] = tested on: K562
[8] = tested on: HCT-116
[9] = tested on: UACC-62
[10] = tested on: HOP-62
[11] = tested on: HT-29
[12] = tested on: SNB-19
[13] = tested on: SF-295
[14] = tested on: UACC-257
[15] = tested on: CAKI-1
[16] = tested on: NCI-H460

Measured: GI50

COC(=O)C(=O)Cc1nc2ccccc2s1
inactive: [1] > 100 µM | [2] > 100 µM | [3] > 100 µM | [4] > 100 µM | [5] > 100 µM | [6] > 100 µM | [7] > 100 µM | [8] > 100 µM | [9] > 100 µM | [10] > 100 µM | [11] > 100 µM | [12] > 100 µM | [13] > 100 µM | [14] > 100 µM | [15] > 100 µM

Cc1ccc(S(=O)(=O)NC(C)C(=O)O)cc1 (centres undefined)
inactive: [1] > 100 µM | [2] > 100 µM | [16] > 100 µM | [4] > 100 µM | [5] > 100 µM | [6] > 100 µM | [9] > 100 µM | [11] > 100 µM | [12] > 100 µM | [13] > 100 µM | [14] > 100 µM | [15] > 100 µM

COc1cc2ccc3c4cc(OC)c(OCc5ccccc5)cc4cnc3c2cc1OC
inactive: [1] > 100 µM | [3] > 100 µM | [16] > 100 µM | [4] 70.6 µM | [5] > 100 µM | [6] > 100 µM | [7] > 100 µM | [9] > 100 µM | [10] > 100 µM | [11] > 100 µM | [13] > 100 µM | [14] > 100 µM | [15] > 100 µM

Cc1c(/C=N/NS(=O)(=O)c2ccccc2)no[n+]1[O-]
inactive: [1] > 100 µM | [3] > 100 µM | [4] > 100 µM | [5] > 100 µM | [6] > 100 µM | [7] > 100 µM | [8] > 100 µM | [9] > 100 µM | [11] > 100 µM | [12] 37.9 µM | [13] > 100 µM | [15] > 100 µM

Cn1c(O)c(C(=O)NC2CCCCC2)c(=O)n(C)c1=S
inactive: [1] 5.64 µM | [2] 8.81 µM | [3] 5.83 µM | [16] 6.1 µM | [4] 3.56 µM | [5] 4.56 µM | [6] 4.33 µM | [9] 4.57 µM | [10] 4.85 µM | [12] 7.11 µM | [13] 3.23 µM | [14] 6.27 µM | [15] 5.89 µM

CCNc1nnc(CSc2nc(-c3ccccc3)c(-c3ccccc3)[nH]2)s1
inactive: [1] 20.1 µM | [2] 16.5 µM | [3] 18.3 µM | [16] 24.9 µM | [4] 20.5 µM | [5] 15.7 µM | [6] 14 µM | [8] 22 µM | [10] 19.9 µM | [11] 19.6 µM | [12] 16.7 µM | [13] 17.7 µM | [14] 17.3 µM

CCc1cccc(CC)c1NC(=O)C1=CNC(C)=C(C(=O)Nc2c(CC)cccc2CC)C1c1ccc(O)c(OC)c1 (centres undefined)
inactive: [1] > 100 µM | [2] 31.5 µM | [3] 21.5 µM | [16] 31.6 µM | [4] 22.3 µM | [5] 40.6 µM | [6] 33.7 µM | [7] 31.4 µM | [10] 33.3 µM | [11] 31.1 µM | [12] 54.1 µM | [13] 29 µM | [14] 28.2 µM | [15] 39.8 µM

O=C1CC(c2c(-c3ccccc3)[nH]c3ccccc23)C(=O)N1 (centres undefined)
inactive: [1] > 100 µM | [3] > 100 µM | [16] > 100 µM | [4] > 100 µM | [6] > 100 µM | [7] > 100 µM | [8] > 100 µM | [9] 89.3 µM | [10] > 100 µM | [11] > 100 µM | [13] > 100 µM | [14] > 100 µM | [15] 71.9 µM

FC(F)(F)C12C34C=CC5(CCC6(C=CC1(CC3)O6)C52C(F)(F)F)O4 (centres undefined)
inactive: [1] > 100 µM | [2] > 100 µM | [3] > 100 µM | [16] > 100 µM | [4] > 100 µM | [5] > 100 µM | [6] > 100 µM | [7] > 100 µM | [8] > 100 µM | [10] > 100 µM | [11] > 100 µM | [12] > 100 µM | [13] > 100 µM | [14] > 100 µM | [15] > 100 µM

Nc1ccc(-c2cc(C(=O)Nc3nccs3)nc(S)n2)cc1
inactive: [1] > 100 µM | [2] > 100 µM | [3] > 100 µM | [4] > 100 µM | [5] > 100 µM | [6] > 100 µM | [7] > 100 µM | [8] > 100 µM | [9] > 100 µM | [11] > 100 µM | [12] > 100 µM | [14] > 100 µM | [15] > 100 µM

CCOc1ccccc1NC(=O)CCc1nnc2s/c(=C\CCc3ccccc3)c(=O)n12
inactive: [1] > 100 µM | [2] > 100 µM | [3] > 100 µM | [16] > 100 µM | [4] > 100 µM | [5] > 100 µM | [6] > 100 µM | [7] > 100 µM | [8] > 100 µM | [9] > 100 µM | [10] > 100 µM | [11] > 100 µM | [12] > 100 µM | [13] > 100 µM | [14] > 100 µM | [15] > 100 µM

CN1C(=O)N(C)C(N2CCCC2)c2c1nc1ccccn1c2=O (centres undefined)
inactive: [1] 78.5 µM | [2] 36.5 µM | [3] 37.6 µM | [16] 76.4 µM | [4] > 100 µM | [5] > 100 µM | [6] > 100 µM | [7] 53.1 µM | [8] 60.4 µM | [9] 67 µM | [10] > 100 µM | [11] > 100 µM | [12] 99.5 µM | [13] > 100 µM | [14] 50.7 µM

COCN1COCN/C1=N\C#N
inactive: [1] > 100 µM | [16] > 100 µM | [4] > 100 µM | [5] > 100 µM | [6] > 100 µM | [7] 88.3 µM | [8] > 100 µM | [9] > 100 µM | [10] > 100 µM | [11] > 100 µM | [12] > 100 µM | [13] > 100 µM | [14] > 100 µM | [15] > 100 µM

CC(=O)OC1C/C(C)=C/[C@H](O)CC(C)/C=C/[C@@]2(C)CCC(C(C)(C)O)C12 (some centres undefined)
inactive: [1] > 100 µM | [2] > 100 µM | [3] > 100 µM | [16] > 100 µM | [4] > 100 µM | [5] > 100 µM | [6] > 100 µM | [7] > 100 µM | [8] > 100 µM | [9] > 100 µM | [10] > 100 µM | [11] > 100 µM | [12] > 100 µM | [13] > 100 µM | [14] > 100 µM | [15] > 100 µM
